Paper PMC3443097, “Evolution of Bombesin Conjugates for Targeted PET Imaging of Tumors” (PLoS ONE, 2012)
Square brackets hold non-standard residues; d marks the D form. Peptide text beside a SMILES is read from it. * marks the point of attachment. CPTA = 4-(1,4,8,11-tetraazacyclotetradec-1-yl)-methyl benzoic acid chelator, O=C(c1ccc(CN2CCCNCCNCCCNCC2)cc1)*; DOTA = O=C(O)CN1CCN(CC(=O)O)CCN(CC(=O)*)CCN(CC(=O)O)CC1; Nle = CCCC[C@H](N)C(=O)O; GABA = NCCCC(=O)O; βAla = NCCC(=O)O

Columns and labels:
NMB-R [1] = settings: read-out: affinity to NMB-R; cited from earlier work
GRP-R [2] = settings: read-out: affinity to GRP-R; cited from earlier work
BNRS-3 [3] = settings: read-out: affinity to BNRS-3; cited from earlier work
BNRS-3 [4] = molecular target: T1, BNRS-3 (Homo sapiens, UniProt P32247); experiment: BN receptor subtype profile with universal radioligand [^125I-D-Tyr^6, βAla^11, Phe^13, Nle^14] BN(6–14), human cancerous tissues; settings: human cancerous tissue, read-out: binding affinity to BNRS-3
T1 construct: from tissue
T1 sequence (P32247 1-399): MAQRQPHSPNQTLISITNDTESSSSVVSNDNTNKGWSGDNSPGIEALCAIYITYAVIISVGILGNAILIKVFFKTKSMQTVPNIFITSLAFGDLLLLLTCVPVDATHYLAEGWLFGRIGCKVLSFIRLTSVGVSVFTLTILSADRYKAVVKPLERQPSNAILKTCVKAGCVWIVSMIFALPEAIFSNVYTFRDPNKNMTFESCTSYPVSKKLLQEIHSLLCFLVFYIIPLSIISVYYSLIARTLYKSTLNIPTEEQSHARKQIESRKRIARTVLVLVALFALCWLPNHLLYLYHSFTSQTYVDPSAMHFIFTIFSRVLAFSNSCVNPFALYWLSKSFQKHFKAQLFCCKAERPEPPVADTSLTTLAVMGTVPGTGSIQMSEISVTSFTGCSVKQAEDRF
Experimental: (§1) Using [^125I-Tyr^4] BN as a GRP receptor preferring ligand, the IC50 values of the ^natCu/^natIn-labeled peptides were measured by in vitro autoradiography of sections of human prostate cancer tissue overexpressing GRP receptors or mouse pancreas tissue expressing mouse GRP receptors. The prostate cancer tissues originated from samples investigated previously or collected prospectively at the Institute of Pathology of the University of Berne in accordance with international ethical guidelines, including informed written consent and approval by the institutional review board. The binding affinity profile of [Cu^II]-BZH7 for three bombesin receptor subtypes was determined by using [^125I-D-Tyr^6, βAla^11, Phe^13, Nle^14] BN(6–14) as an universal radioligand. The procedures were described in detail previously.
(§2) The most promising peptide, Cu-BZH7, was also studied with respect to BN receptor subtype profiles using human cancerous tissues shown to express predominantly a single bombesin receptor subtype.

GRP-R [5] = molecular target: T2, GRP-R (Homo sapiens, UniProt P30550); experiment: as above; settings: human cancerous tissue, read-out: binding affinity to GRP-R
T2 construct: from tissue
T2 sequence (P30550 whole entry): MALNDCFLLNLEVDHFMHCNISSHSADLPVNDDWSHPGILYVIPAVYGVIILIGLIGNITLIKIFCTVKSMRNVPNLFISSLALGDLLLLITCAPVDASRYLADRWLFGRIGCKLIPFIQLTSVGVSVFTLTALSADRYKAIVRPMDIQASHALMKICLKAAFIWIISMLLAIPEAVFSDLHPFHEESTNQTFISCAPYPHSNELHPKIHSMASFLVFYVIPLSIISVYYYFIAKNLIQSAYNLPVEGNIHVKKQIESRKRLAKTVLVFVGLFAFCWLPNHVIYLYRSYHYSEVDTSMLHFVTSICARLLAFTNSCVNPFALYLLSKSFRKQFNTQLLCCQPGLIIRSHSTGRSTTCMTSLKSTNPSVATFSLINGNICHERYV
Experimental: as §1, §2

NMB-R [6] = molecular target: T3, NMB-R (Homo sapiens, UniProt P28336); experiment: as above; settings: human cancerous tissue, read-out: binding affinity to NMB-R
T3 construct: from tissue
T3 sequence (P28336 whole entry): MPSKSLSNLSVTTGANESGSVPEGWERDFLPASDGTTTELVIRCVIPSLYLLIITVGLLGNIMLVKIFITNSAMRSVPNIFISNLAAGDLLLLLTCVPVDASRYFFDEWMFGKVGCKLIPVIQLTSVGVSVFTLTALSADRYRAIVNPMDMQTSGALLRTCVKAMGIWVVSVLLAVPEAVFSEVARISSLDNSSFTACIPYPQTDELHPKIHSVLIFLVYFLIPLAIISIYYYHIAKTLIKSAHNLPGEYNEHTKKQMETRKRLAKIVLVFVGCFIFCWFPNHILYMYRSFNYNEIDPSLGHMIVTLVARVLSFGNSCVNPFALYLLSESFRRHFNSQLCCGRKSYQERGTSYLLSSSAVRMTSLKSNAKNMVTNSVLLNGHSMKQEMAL
Experimental: as §1, §2

PC-3 cells = experiment: Composition of radioactivity externalized from PC-3 cells (metabolites); type: cell-based, human
Experimental: To identify the composition of the externalized peptides, [^111In]-BZH4 (^111In-DOTA-GABA-D-Tyr-Gln-Trp-Ala-Val-βAla-His-Leu-Nle-NH2) was used as a surrogate peptide with high specific activity, required for metabolic studies. Upon 2 h of internalization and acid wash, the externalized radioactivity after 2 h incubation already consisted of approximately 84% metabolites (^111In-DOTA: 14%; ^111In-DOTA-GABA-D-Tyr-Gln: main peak, 64%; ^111In-DOTA-GABA-D-Tyr-Gln-Trp-Ala-Val-βAla: 6%) and 16% intact peptide.

human GRP receptor = molecular target: T4, human GRP receptor (Homo sapiens, UniProt P30550); experiment: Competitive binding vs [^125I-Tyr^4] BN, autoradiography of human prostate cancer tissue sections; settings: displacement of [^125I-Tyr^4] BN, ± SD, number of independent studies in brackets
T4 construct: in vitro autoradiography of sections of human prostate cancer tissue overexpressing GRP receptors; from tissue; host or cells: human prostate cancer tissue sections (patient samples, Institute of Pathology, University of Berne)
T4 sequence (P30550 whole entry): as the sequence (P30550 whole entry) above
Experimental: as §1
(§3) Competitive binding assays were performed with human GRP receptor-positive cancerous tissue and mouse pancreas tissue (expressing mouse GRP receptor) using [^125I-Tyr^4]bombesin as radioligand. Table 2 summarizes the binding affinities of the metallopeptides to GRP receptors of mouse and human origin.

mouse GRP receptor = molecular target: T5, mouse GRP receptor (Mus musculus, UniProt P21729); experiment: Competitive binding vs [^125I-Tyr^4] BN, autoradiography of mouse pancreas tissue sections; settings: displacement of [^125I-Tyr^4] BN, ± SD, number of independent studies in brackets
T5 construct: mouse pancreas tissue (expressing mouse GRP receptor); from tissue; host or cells: mouse pancreas tissue sections
T5 sequence (P21729 whole entry): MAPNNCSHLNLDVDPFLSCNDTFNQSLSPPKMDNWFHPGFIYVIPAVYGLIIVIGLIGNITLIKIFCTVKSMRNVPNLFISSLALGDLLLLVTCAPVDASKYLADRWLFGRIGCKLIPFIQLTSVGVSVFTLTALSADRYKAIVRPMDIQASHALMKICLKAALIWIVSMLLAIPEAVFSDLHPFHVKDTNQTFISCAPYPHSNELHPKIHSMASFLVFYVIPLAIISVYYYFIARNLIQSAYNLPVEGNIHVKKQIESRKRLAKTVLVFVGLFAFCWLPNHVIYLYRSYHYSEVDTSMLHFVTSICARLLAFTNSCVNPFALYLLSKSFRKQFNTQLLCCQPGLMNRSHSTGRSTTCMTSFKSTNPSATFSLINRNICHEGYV
Experimental: as §1, §3

[7] = 2 h internalization, acid wash, 2 h incubation

[(N4-Bzdig)^0] BN (7–14)
IC50 (NMB-R [1]): 0.65 nM | IC50 (GRP-R [2]): 0.9 nM | IC50 (BNRS-3 [3]): 37 nM

CSCC[C@H](NC(=O)[C@H](CC(C)C)NC(=O)[C@H](Cc1c[nH]cn1)NC(=O)CCNC(=O)[C@@H](NC(=O)[C@H](C)NC(=O)[C@H](Cc1c[nH]c2ccccc12)NC(=O)[C@H](CCC(N)=O)NC(=O)c1ccc(CN2CCCNCCNCCCNCC2)cc1)C(C)C)C(N)=O [[Cu^II]-BZH7, Cu^II-CPTA-[βAla^11] BN(7–14)]
IC50 (BNRS-3 [4]): 1.4 ± 0.6 nM | IC50 (GRP-R [5]): 0.3 ± 0.07 nM | IC50 (NMB-R [6]): 0.27 ± 0.16 nM

CCCC[C@H](NC(=O)[C@H](CC(C)C)NC(=O)[C@H](Cc1c[nH]cn1)NC(=O)CCNC(=O)[C@@H](NC(=O)[C@H](C)NC(=O)[C@H](Cc1c[nH]c2ccccc12)NC(=O)[C@H](CCC(N)=O)NC(=O)[C@@H](Cc1ccc(O)cc1)NC(=O)CCCNC(=O)CN1CCN(CC(=O)O)CCN(CC(=O)O)CCN(CC(=O)O)CC1)C(C)C)C(N)=O [[^111In]-BZH4, ^111In-DOTA-GABA-D-Tyr-Gln-Trp-Ala-Val-βAla-His-Leu-Nle-NH2, metal not drawn] ({DOTA-GABA}-[dY]QWAV[βAla]HL[Nle]-NH2)
externalized radioactivity: ^111In-DOTA (PC-3 cells): 14% | externalized radioactivity: metabolites (total) (PC-3 cells): approximately 84% | externalized radioactivity: ^111In-DOTA-GABA-D-Tyr-Gln (main peak) (PC-3 cells; [7]): 64% | externalized radioactivity: ^111In-DOTA-GABA-D-Tyr-Gln-Trp-Ala-Val-βAla (PC-3 cells; [7]): 6%

Cu^II-CPTA-[Gly^6, βAla^11] BN(6–14) [[Cu^II]-BZH8]
IC50 (human GRP receptor): 1.8 ± 0.6 nM | IC50 (mouse GRP receptor): 0.8 ± 0.2 nM

In^III-DOTA-GABA-[D-Tyr^6, βAla^11, Nle^14] BN(6–14) [[In^III]-BZH4]
IC50 (human GRP receptor): 41.5 ± 2.5 nM | IC50 (mouse GRP receptor): 0.8 ± 0.4 nM

DOTA-PEG4-BN(7–14) [[^natGa/^natLu]-DOTA-PESIN]
IC50 (NMB-R [1]): 12.5 nM | IC50 (GRP-R [2]): 10 nM | IC50 (BNRS-3 [3]): > 1000 nM

Cu^II-CPTA -[D-Tyr^6, βAla^11, Nle^14] BN(6–14) [[Cu^II]-BZH5]
IC50 (human GRP receptor): 3.2 ± 0.5 nM | IC50 (mouse GRP receptor): 0.6 ± 0.2 nM

Cu^II-CPTA-[D-Tyr^6, βAla^11] BN(6–14) ({CPTA}-[dY]QWAV[βAla]HLM-NH2; also: Cu(II) complex of CPTA) [[Cu^II]-BZH6]
IC50 (human GRP receptor): 1 ± 0.2 nM | IC50 (mouse GRP receptor): 0.8 ± 0.2 nM

CCCC[C@H](NC(=O)[C@H](CC(C)C)NC(=O)[C@H](Cc1c[nH]cn1)NC(=O)CCNC(=O)[C@@H](NC(=O)[C@H](C)NC(=O)[C@H](Cc1c[nH]c2ccccc12)NC(=O)[C@H](CCC(N)=O)NC(=O)[C@@H](Cc1ccc(O)cc1)NC(=O)CCCNC(=O)CN1CCN(CC(=O)O)CCN(CC(=O)O)CCN(CC(=O)O)CC1)C(C)C)C(N)=O [[Cu^II]-BZH4, Cu^II-DOTA-GABA-[D-Tyr^6, βAla^11, Nle^14] BN(6–14)] ({DOTA-GABA}-[dY]QWAV[βAla]HL[Nle]-NH2)
IC50 (human GRP receptor): 26.3 ± 3.5 nM | IC50 (mouse GRP receptor): 1.1 ± 0.3 nM
